Data from patent US12502365B2 (Instytut Biologii Doswiadczalnej Im. Marcelego Nenckiego …, priority 2019, dated 2025).

Key:
MMP-9 [1] = target: T1, MMP-9 (Rattus norvegicus, UniProt P50282); experiment: Inhibition of MMP-9-dependent nectin-3 cleavage in glutamate-stimulated hippocampal neuron cultures (immunoblotting); format: cell-based
T1 construct: stimulate neuronal cell activity leading to release of MMP-9; endogenous in cells; host or cells: primary rat hippocampal neurons, 7 DIV
Procedure: In the first non-limiting example, the compound was tested for specific inhibition of MMP-9 activity in vitro. Hippocampal neurons were prepared from newborn Wistar rats at postnatal day P0 as described previously (Habas et al., 2006). The culture medium consisted of Neurobasal Medium supplemented with B27 (Invitrogen) and 1 mM 1-glutamine, 100 U ml^−1 penicillin and 0.1 mg ml^−1 streptomycin. The cells used for these experiments were 7 DIV. […] The control cultures consisted of neurons stimulated with glutamate and of glutamate in the presence of inhibitor I (an inhibitor with proven inhibitory effect on MMP-9 activity). […] The MMP-9 activity level was evaluated by the cleavage of MMP-9 substrate-nectin-3.
Nectin-3 is a transmembrane protein predominantly expressed at post-synaptic part of the synapse (van der Kooij et al., 2014). […] We evaluated the basic amount of nectin-3 (by immunoblotting) and the presence of a cut fragment of nectin-3 (approximately 17 kDa).
For immunoblotting, cultures were homogenized in a lysis buffer containing 1 mM MgCl2, 5 mM HEPES (pH=7.4), 320 mM sucrose, 1 mM Na2F, and cOmplete™ Protease Inhibitor Cocktail (Roche) using Dounce glass homogenizer. Protein concentration was measured using BCA Protein Assay Kit (Pierce). […] For the quantification of individual bands, the scan of the photographic film was analyzed by densitometry using GeneTools software (Syngene).

MMP-9 [2] = target: T2, MMP-9 (Mus musculus, UniProt P41245); experiment: MMP-9-dependent nectin-3 cleavage in hippocampus after kainic acid injection (immunoblotting); format: in vivo, mice; details: 9 mg/kg i.p. 1 hour prior to KA; hippocampus 6 hours after KA
T2 construct: strongly associated with the release of MMP-9 from dendritic spines; from tissue; host or cells: mouse hippocampus (in vivo, after kainic acid)
T2 sequence (P41245 108-730): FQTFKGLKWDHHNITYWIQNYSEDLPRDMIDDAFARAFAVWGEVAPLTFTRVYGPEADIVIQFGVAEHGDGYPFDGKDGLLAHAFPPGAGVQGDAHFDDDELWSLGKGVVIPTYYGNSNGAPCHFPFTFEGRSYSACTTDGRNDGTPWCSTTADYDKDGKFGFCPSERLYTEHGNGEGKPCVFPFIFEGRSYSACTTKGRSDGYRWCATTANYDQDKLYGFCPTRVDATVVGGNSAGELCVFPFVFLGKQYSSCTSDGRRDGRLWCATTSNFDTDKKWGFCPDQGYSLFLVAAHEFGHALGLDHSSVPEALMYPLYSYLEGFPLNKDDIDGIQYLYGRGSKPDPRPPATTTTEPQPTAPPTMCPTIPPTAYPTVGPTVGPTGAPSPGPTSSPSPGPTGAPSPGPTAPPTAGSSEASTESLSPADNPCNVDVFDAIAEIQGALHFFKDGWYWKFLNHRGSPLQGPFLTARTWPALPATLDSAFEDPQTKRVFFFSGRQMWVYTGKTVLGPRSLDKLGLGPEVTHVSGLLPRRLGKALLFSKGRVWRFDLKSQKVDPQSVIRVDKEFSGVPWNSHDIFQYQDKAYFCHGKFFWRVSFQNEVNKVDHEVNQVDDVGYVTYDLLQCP
Procedure: In a further nonlimiting example, marimastat was tested in vivo, in a mouse model of epileptogenesis (intra-hippocampal kainic acid injection). […] This is the optimal time allowing for its potential therapeutic effects. […] As a result of the KA injection, strong epileptic seizures were observed due to increased neuronal activity.
The process of developing epileptic seizures evoked by KA (epileptogenesis) is strongly associated with the release of MMP-9 from dendritic spines. […] For this purpose, after 6 hours following KA-injection the hippocampus was isolated and the immunoblotting assay was performed for the presence of cleaved form of nectin-3 protein.

[3] = tested on: mouse model of epileptogenesis (intra-hippocampal kainic acid injection); experiment: Functional analysis in mouse model of epileptogenesis (intra-hippocampal kainic acid injection), video-EEG; format: in vivo, mice; details: for duration of the single seizure: P=0.02
Procedure: The functional analysis of therapeutic use of marimastat in mouse model of epileptogenesis (intra-hippocampal kainic acid injection) was performed. Epileptogenesis was induced by the administration of kainic acid directly into the CA1 region of the hippocampus, during stereotactic surgeries. Coordinates for CA1 were chosen according to Paxinos Mouse Brain Atlas. […] The mice were injected intraperitoneally (9 mg/kg b.w.), 3 times after administration of kainic acid at: • 1. 30 minutes • 2. 6 hours • 3. […] Each group consisted of 6 animals; the experiment was performed in two repetitions. Simultaneously, just after KA injections, mice were implanted with cranial and hippocampal electrodes for EEG registration (FIG. 3). […] Injected kainic acid stimulated the degeneration within CA1 and CA3 region, but also led to the changes within dentate gyms area. One of the most important changes observed in the epileptogenesis process was mossy fiber sprouting located in dentate gyms DG. Mossy fiber sprouting is defined as an aberrant sprouting of granule cells axons (mossy fibers) into the inner molecular layer of the dentate gyrus. This process is observed in patients with temporal lobe epilepsy (Buckmaster, 2012). Therefore, hippocampal electrode location was implanted into DG, below the injection site, according to coordinates: The electrode implantation process proceeded according to the following protocol. Stainless steel screw electrodes (Ø1.6 mm, Bilaney Consultants GmbH, Germany) were placed in the skull (Table 3; FIG. 3). A bipolar hippocampal electrode was positioned in the dentate gyms. The 2-week continuous (24 h/7 days) video-EEG (vEEG) monitoring was started immediately after KA injection. Mice were placed in PMMA cages (one mouse per cage) and connected to the recording system with commutators (SL6C, Plastics One Inc., USA). vEEG was performed using the Twin EEG recording system connected to a Comet EEG PLUS with 57-channel amplifier AS40-PLUS (Natus Medical Incorporated, USA) and filtered (high-pass filter cut-off 0.3 Hz, low-pass filter cut off 100 Hz). The behavior of the animals was recorded using a digital camera I-PRO WV-SC385 (Panasonic, Japan). As outcome measures, the present Inventors assessed the occurrence, frequency and duration of spontaneous seizures. An electroencephalographic seizure was defined as a high amplitude (>2× baseline) rhythmic discharge that clearly represented an abnormal EEG pattern that lasted >5 s. The frequency of seizures in each mouse was calculated as the number of seizures per completed EEG recording day or per week. Modified Racine's scale was used in the study (Racine, 1972): The experiment was divided into three parts: • 1) first 24 hours post-KA injection (acute response to injected convulsant) • 2) first week post-KA injection (acute response to injected convulsant) • 3) 4 weeks after KA injection (epileptogenesis upon injected convulsant—chronic changes) In each stage, several parameters were calculated: seizure duration (in seconds), seizure score (according the Racine scale), seizure number (per animal/per day). Additionally, in the first 24 hours, the time between the kainic acid injection and first epileptic seizure was also estimated.

[4] = tested on: MMP-1, MMP-2, MMP-3, MMP-7 and MMP-9; details: cited from earlier work
[5] = humans, oral; cited from earlier work
[6] = single dose up to 800 mg or repeated dose up to 200 mg twice a day for a week; cited from earlier work
[7] = tested on: murine cancer models: melanoma, hemangioma, ovarian carcinoma, colorectal, breast and pancreatic cancer; details: cited from earlier work
[8] = 4 weeks after KA injection, not significant

T1 sequence (P50282 108-708): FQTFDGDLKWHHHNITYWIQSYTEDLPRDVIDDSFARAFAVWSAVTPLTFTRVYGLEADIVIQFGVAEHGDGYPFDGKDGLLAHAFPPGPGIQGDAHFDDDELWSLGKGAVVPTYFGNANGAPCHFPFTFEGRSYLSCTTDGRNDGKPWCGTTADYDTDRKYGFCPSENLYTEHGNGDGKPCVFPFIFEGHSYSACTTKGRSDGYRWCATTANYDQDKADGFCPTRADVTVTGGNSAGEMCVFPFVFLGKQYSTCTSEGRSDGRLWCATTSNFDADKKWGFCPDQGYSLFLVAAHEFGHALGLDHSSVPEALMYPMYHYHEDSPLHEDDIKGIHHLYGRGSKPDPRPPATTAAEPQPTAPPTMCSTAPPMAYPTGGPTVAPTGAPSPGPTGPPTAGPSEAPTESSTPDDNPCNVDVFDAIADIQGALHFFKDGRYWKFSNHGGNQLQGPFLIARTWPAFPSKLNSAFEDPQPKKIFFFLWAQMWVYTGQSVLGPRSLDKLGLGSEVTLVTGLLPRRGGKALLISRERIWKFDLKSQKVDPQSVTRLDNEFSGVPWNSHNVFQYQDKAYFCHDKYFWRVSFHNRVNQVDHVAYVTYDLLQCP

For `CNC(=O)[C@@H](NC(=O)[C@H](CC(C)C)[C@H](O)C(=O)NO)C(C)(C)C` [marimastat, Marimastat], the “MMP-9-dependent cleavage of nectin-3 in vitro” value (MMP-9 [1]; hippocampal dissociated cell cultures, 7 DIV, glutamate 5 μM, 17 kDa nectin-3 fragment) was “inhibits”, the “minimum effective dose inhibiting nectin-3 cleavage” value (MMP-9 [1]; tested at 5 nM, 0.5 μM, 5 μM, 40 μM and 100 μM, 30 min before glutamate) was 0.5 µM and the “MMP-9-dependent nectin-3 enzymatic cleavage in vivo (optical density of the 17 kDa nectin-3 fragment)” value (MMP-9 [2]) was “specifically reduced”. For the same molecule, the “duration of the single seizure” value ([3]; 4 weeks after KA injection) was “inhibited”, the seizure number [3, 8] was “slightly decreased” and the seizure score [3, 8] was “slightly decreased”. The “latency to the 1st seizure” value ([3]; first 24 hours post-KA) was “no differences”, the seizure duration ([3]; first 24 hours post-KA) was “no differences” and the “seizure score (Racine scale)” value ([3]; first 24 hours post-KA, 9 mg/kg i.p. at 30 min, 6 h, 24 h, P=0.0016) was “significantly decreased”. The seizure number ([3]; first 24 hours post-KA, P=0.005) was “significantly decreased”, the seizure number ([3]; first week post-KA) was “did not change” and the seizure score ([3]; first week post-KA) was “did not change”. The “duration of the single seizure” value ([3]; first week post-KA) was “significantly reduced”, the “inhibitory activity against major MMPs” value [4] was “potent broad-spectrum inhibitory activity” and the bioavailability [5] was “high and predictable”. For the same molecule, the half-life [5] was “approximately 15 hours”, the “side effects in healthy subjects” value [6] was “did not show any side effects” and the tumor progression [7] was “inhibited tumor progression”.
